Blank lines part the entries; values can stand above or below the compound they belong to. Calls of active or inactive are those of the source.
Legend:
Format in all cases: functional
[1] = target: Cyclin-dependent kinase 9 (Homo sapiens, UniProt P50750);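 also: value from the CDK9 entry of a kinome-spanning kinase panel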
[2] = target: Tyrosine-protein kinase receptor TYRO3 (Homo sapiens, UniProt Q06418);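 also: TYRO3 value obtained as one member of a kinome-wide profiling panel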
[3] = target: Fibroblast growth factor receptor 1 (Homo sapiens, UniProt P11362)
[4] = target: Calcium/calmodulin-dependent protein kinase type II subunit alpha (Homo sapiens, UniProt Q9UQM7); experiment: Navigating the Kinome. Panel member name: CAMK2A
LIM domain kinase 1 = LIM domain kinase 1 (Homo sapiens, UniProt P53667); experiment: Navigating the Kinome. Panel member name: LIMK1
[5] = target: Cyclin-dependent kinase 5 (Homo sapiens, UniProt Q00535);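 also: CDK5 measured as one member of a kinase profiling panel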
Cyclin-dependent kinase 5, sequence (Q00535 whole entry): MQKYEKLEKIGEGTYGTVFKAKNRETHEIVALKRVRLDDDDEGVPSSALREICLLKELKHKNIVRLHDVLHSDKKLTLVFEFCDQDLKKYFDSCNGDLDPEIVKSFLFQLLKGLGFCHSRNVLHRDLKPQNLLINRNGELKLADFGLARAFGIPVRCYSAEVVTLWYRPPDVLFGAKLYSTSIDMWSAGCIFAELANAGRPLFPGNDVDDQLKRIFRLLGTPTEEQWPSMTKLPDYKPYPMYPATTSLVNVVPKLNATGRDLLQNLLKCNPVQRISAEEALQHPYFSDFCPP

[6] = target: Glycogen synthase kinase-3 beta (Homo sapiens, UniProt P49841);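 also: value comes from a broad kinome profiling panel, with GSK3B as the panel member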
[7] = target: Cyclin-dependent kinase 8 (Homo sapiens, UniProt P49336); experiment: Navigating the Kinome. Panel member name: CDK8
[8] = target: Leucine-rich repeat serine/threonine-protein kinase 2 (Homo sapiens, UniProt Q5S007);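 also: value from a broad kinome-wide panel profiling study in which LRRK2 was one of the kinases tested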
[9] = target: Serine/threonine-protein kinase PAK 4 (Homo sapiens, UniProt O96013);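 also: value obtained within a kinome profiling panel in which PAK4 was one of the panel members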
[10] = target: Inhibitor of nuclear factor kappa-B kinase subunit epsilon (Homo sapiens, UniProt Q14164); experiment: Navigating the Kinome. Panel member name: IKBKE
[11] = target: Hepatocyte growth factor receptor (Homo sapiens, UniProt P08581);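 also: kinase panel profiling across the kinome, with MET as the panel member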
[12] = target: Tyrosine-protein kinase Fyn (Homo sapiens, UniProt P06241)
Tyrosine-protein kinase Fyn, sequence (P06241 whole entry): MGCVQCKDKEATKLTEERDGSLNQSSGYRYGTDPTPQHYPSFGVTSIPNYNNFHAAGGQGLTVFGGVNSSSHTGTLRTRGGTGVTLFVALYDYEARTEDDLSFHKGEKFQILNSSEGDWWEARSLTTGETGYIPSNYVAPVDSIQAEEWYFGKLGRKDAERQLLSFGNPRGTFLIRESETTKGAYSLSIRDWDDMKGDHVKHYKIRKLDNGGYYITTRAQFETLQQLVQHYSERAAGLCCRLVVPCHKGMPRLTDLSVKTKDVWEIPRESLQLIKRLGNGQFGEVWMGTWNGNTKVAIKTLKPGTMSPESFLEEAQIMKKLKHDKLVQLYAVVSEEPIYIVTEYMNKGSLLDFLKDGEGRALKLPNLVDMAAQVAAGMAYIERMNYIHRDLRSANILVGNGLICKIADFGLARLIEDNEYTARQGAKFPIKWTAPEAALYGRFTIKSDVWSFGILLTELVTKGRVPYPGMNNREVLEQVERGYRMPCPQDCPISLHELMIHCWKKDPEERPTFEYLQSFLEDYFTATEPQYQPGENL

[13] = target: Vascular endothelial growth factor receptor 2 (Homo sapiens, UniProt P35968)
[14] = target: ALK tyrosine kinase receptor (Homo sapiens, UniProt Q9UM73);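 also: ALK tested as one member of a kinase panel screen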
[15] = target: Dual specificity mitogen-activated protein kinase kinase 1 (Homo sapiens, UniProt Q02750); experiment: Navigating the Kinome. Panel member name: MAP2K1
[16] = target: Insulin-like growth factor 1 receptor (Homo sapiens, UniProt P08069); experiment: Navigating the Kinome. Panel member name: IGF1R
Aurora kinase A = Aurora kinase A (Homo sapiens, UniProt O14965);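 also: value from the Navigating the Kinome kinase panel profiling, panel entry STK6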
[17] = target: 5'-AMP-activated protein kinase catalytic subunit alpha-1 (Homo sapiens, UniProt Q13131)
[18] = target: Tyrosine-protein kinase JAK2 (Homo sapiens, UniProt O60674);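 also: JAK2 tested as one member of a kinase panel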
[19] = target: Glycogen synthase kinase-3 alpha (Homo sapiens, UniProt P49840);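 also: GSK3A result taken from a broad kinome-wide kinase panel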
Glycogen synthase kinase-3 alpha, sequence (P49840 whole entry): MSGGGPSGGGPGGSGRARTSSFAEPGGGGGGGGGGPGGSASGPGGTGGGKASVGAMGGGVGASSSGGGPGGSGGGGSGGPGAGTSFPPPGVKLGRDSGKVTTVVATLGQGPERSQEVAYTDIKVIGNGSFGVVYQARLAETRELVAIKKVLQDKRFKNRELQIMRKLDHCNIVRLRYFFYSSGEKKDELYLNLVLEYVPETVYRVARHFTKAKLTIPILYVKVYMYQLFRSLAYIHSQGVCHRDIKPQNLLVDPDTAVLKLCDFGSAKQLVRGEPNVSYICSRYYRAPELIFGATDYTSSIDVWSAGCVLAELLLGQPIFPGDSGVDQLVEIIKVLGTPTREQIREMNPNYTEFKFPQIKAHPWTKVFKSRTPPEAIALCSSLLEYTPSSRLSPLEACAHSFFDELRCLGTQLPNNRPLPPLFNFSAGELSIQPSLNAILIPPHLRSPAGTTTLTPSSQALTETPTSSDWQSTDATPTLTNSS

[20] = target: Proto-oncogene tyrosine-protein kinase receptor Ret (Homo sapiens, UniProt P07949);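 also: measured within a kinome-wide profiling panel, RET as the panel member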
[21] = target: Serine/threonine-protein kinase D3 (Homo sapiens, UniProt O94806);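 also: determined within a kinase panel screen, with PRKCN as the panel member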
Activated CDC42 kinase 1 = Activated CDC42 kinase 1 (Homo sapiens, UniProt Q07912); experiment: Navigating the Kinome. Panel member name: ACK1
[22] = target: Serine/threonine-protein kinase pim-1 (Homo sapiens, UniProt P11309)
Serine/threonine-protein kinase pim-1, sequence (P11309 whole entry): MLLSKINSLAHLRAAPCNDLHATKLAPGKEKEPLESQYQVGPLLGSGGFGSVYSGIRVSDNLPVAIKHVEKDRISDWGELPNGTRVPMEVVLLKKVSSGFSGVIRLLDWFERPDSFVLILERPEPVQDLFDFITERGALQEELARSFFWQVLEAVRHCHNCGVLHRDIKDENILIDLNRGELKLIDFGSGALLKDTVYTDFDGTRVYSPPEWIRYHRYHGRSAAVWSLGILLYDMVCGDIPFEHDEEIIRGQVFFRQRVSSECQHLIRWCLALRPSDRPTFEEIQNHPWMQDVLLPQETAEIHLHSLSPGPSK

[23] = target: Dual specificity mitogen-activated protein kinase kinase 2 (Homo sapiens, UniProt P36507); experiment: Navigating the Kinome. Panel member name: MAP2K2
[24] = target: Protein kinase C theta type (Homo sapiens, UniProt Q04759); experiment: Navigating the Kinome. Panel member name: PRKCQ
[25] = target: G protein-coupled receptor kinase 5 (Homo sapiens, UniProt P34947); experiment: Navigating the Kinome. Panel member name: GPRK5
[26] = target: Platelet-derived growth factor receptor alpha (Homo sapiens, UniProt P16234); experiment: Navigating the Kinome. Panel member name: PDGFRA
Platelet-derived growth factor receptor alpha, sequence (P16234 whole entry): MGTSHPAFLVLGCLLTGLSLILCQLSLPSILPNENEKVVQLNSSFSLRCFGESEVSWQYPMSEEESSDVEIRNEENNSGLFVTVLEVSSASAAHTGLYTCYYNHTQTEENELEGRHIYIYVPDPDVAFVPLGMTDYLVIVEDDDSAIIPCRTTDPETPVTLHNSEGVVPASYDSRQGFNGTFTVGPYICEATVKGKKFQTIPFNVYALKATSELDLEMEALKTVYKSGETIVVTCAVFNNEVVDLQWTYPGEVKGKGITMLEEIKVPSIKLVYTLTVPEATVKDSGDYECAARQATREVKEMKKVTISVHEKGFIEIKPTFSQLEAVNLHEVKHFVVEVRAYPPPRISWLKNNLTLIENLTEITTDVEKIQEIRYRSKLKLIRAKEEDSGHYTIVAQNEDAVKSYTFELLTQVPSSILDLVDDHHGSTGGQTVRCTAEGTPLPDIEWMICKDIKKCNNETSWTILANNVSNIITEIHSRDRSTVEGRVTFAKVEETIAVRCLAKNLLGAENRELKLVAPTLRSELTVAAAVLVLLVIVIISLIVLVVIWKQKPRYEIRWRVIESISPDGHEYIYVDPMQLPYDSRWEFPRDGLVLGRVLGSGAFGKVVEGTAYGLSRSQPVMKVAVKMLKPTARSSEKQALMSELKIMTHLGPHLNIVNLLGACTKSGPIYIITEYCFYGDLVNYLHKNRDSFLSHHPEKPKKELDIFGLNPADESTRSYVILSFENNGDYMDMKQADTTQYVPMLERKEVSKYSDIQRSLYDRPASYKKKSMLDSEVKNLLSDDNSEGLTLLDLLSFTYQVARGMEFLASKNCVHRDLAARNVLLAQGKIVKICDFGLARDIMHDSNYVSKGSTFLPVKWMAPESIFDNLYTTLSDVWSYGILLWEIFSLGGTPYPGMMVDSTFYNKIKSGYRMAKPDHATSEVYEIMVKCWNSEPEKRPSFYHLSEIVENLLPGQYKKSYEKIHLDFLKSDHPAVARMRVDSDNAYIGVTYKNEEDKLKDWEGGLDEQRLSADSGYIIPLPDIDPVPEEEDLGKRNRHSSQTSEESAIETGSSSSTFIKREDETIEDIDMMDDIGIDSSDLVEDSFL

[27] = target: Rho-associated protein kinase 1 (Homo sapiens, UniProt Q13464);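 also: measured within a broad kinome-wide panel profiling many kinases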
[28] = target: Mitogen-activated protein kinase 9 (Homo sapiens, UniProt P45984);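 also: value from a kinome panel profiling assay, MAPK9 panel entry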
[29] = target: Serine/threonine-protein kinase TBK1 (Homo sapiens, UniProt Q9UHD2); experiment: Navigating the Kinome. Panel member name: TBK1
Aurora kinase B = Aurora kinase B (Homo sapiens, UniProt Q96GD4)
Aurora kinase B, sequence (Q96GD4 whole entry): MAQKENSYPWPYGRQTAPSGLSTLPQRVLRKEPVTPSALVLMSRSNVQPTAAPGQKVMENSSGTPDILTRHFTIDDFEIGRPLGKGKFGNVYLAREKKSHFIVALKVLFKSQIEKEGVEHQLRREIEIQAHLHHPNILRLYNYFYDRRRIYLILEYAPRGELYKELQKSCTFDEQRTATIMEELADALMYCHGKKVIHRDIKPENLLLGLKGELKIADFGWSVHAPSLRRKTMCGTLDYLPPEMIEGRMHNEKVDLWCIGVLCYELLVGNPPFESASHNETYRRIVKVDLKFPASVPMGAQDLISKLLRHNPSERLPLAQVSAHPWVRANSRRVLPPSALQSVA

[30] = target: Mitogen-activated protein kinase 14 (Homo sapiens, UniProt Q16539);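 also: part of a kinome-wide panel, MAPK14 entry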
[31] = target: cAMP-dependent protein kinase catalytic subunit alpha (Homo sapiens, UniProt P17612)
[32] = target: Macrophage-stimulating protein receptor (Homo sapiens, UniProt Q04912); experiment: Navigating the Kinome. Panel member name: MST1R
[33] = target: Tyrosine-protein kinase BTK (Homo sapiens, UniProt Q06187)
[34] = target: Dual specificity tyrosine-phosphorylation-regulated kinase 1B (Homo sapiens, UniProt Q9Y463); experiment: Navigating the Kinome. Panel member name: DYRK1B
Dual specificity tyrosine-phosphorylation-regulated kinase 1B, sequence (Q9Y463 whole entry): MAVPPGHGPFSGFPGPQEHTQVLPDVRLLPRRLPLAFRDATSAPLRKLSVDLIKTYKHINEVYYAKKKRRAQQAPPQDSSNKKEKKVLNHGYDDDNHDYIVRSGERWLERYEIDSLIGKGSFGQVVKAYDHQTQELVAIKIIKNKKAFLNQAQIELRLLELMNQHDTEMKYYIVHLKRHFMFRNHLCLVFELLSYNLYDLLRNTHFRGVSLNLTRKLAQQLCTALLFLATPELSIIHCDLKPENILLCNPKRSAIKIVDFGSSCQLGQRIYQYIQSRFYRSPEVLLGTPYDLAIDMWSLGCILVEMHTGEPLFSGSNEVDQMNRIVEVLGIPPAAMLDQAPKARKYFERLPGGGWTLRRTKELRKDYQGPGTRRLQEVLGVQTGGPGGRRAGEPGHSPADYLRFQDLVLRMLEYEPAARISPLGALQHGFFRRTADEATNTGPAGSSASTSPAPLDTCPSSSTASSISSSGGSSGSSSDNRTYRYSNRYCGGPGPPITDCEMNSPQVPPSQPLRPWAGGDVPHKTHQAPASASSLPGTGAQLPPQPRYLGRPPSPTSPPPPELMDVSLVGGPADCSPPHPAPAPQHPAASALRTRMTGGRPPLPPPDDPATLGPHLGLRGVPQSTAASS

[35] = target: Dual specificity protein kinase CLK4 (Homo sapiens, UniProt Q9HAZ1)
[36] = target: High affinity nerve growth factor receptor (Homo sapiens, UniProt P04629);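 also: NTRK1 tested as one member of a kinome-wide profiling panel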
[37] = target: Mitogen-activated protein kinase kinase kinase kinase 2 (Homo sapiens, UniProt Q12851);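 also: measured as one member of a kinome-wide kinase panel, with MAP4K2 as the panel entry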
[38] = target: cAMP-dependent protein kinase catalytic subunit PRKX (Homo sapiens, UniProt P51817)
[39] = target: Leukocyte tyrosine kinase receptor (Homo sapiens, UniProt P29376); experiment: Navigating the Kinome. Panel member name: LTK
[40] = target: Macrophage colony-stimulating factor 1 receptor (Homo sapiens, UniProt P07333);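 also: value comes from the Navigating the Kinome screening panel, CSF1R member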
[41] = target: Serine/threonine-protein kinase TAO1 (Homo sapiens, UniProt Q7L7X3)
[42] = target: Dual specificity tyrosine-phosphorylation-regulated kinase 1A (Homo sapiens, UniProt Q13627);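 also: measured against DYRK1A as one member of a broad kinome profiling panel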
[43] = target: Cyclin-dependent kinase 7 (Homo sapiens, UniProt P50613);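 also: value comes from a kinome-wide kinase profiling panel in which CDK7 is one member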
[44] = target: BDNF/NT-3 growth factors receptor (Homo sapiens, UniProt Q16620);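 also: NTRK2 measured as one member of a broad kinome-wide kinase profiling panel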
BDNF/NT-3 growth factors receptor, sequence (Q16620 whole entry): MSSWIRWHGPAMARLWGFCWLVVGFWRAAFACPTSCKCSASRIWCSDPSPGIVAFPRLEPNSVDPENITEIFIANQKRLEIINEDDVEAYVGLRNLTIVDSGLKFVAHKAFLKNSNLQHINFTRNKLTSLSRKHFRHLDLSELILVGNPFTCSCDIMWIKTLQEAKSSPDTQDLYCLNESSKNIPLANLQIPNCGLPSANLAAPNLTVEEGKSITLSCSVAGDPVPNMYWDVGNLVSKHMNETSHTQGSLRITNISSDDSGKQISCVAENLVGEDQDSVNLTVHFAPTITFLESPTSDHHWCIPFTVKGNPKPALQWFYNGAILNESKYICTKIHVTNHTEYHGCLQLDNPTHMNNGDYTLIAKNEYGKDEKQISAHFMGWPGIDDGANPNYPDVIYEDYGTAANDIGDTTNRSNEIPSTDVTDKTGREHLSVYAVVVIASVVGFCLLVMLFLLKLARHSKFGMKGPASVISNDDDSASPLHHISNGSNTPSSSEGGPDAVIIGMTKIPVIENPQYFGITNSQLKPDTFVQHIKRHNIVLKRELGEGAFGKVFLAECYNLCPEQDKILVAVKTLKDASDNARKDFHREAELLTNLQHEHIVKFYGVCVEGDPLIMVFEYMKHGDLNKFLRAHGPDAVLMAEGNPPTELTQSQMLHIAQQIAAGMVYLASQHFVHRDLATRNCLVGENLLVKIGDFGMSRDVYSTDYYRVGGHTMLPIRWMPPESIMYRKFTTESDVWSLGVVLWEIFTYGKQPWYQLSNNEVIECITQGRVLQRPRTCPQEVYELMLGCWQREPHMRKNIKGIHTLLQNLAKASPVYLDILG

[45] = target: Dual specificity protein kinase CLK2 (Homo sapiens, UniProt P49760)
[46] = target: Serine/threonine-protein kinase Chk1 (Homo sapiens, UniProt O14757);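 also: measured as one member of a kinome-wide kinase profiling panel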
[47] = target: Mitogen-activated protein kinase 8 (Homo sapiens, UniProt P45983);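 also: value comes from one member of a kinome-wide kinase profiling panel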
Activin receptor type-1 = Activin receptor type-1 (Homo sapiens, UniProt Q04771); experiment: Navigating the Kinome. Panel member name: ACVR1
[48] = target: Receptor-type tyrosine-protein kinase FLT3 (Homo sapiens, UniProt P36888);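 also: FLT3 was tested as one member of a kinome-wide kinase panel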
[49] = target: Vascular endothelial growth factor receptor 1 (Homo sapiens, UniProt P17948);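 also: measured within a kinome-wide profiling panel, FLT1 as the panel member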
[50] = target: Tyrosine-protein kinase JAK3 (Homo sapiens, UniProt P52333)
[51] = target: Tyrosine-protein kinase ABL1 (Homo sapiens, UniProt P00519)
[52] = target: Death-associated protein kinase 3 (Homo sapiens, UniProt O43293);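 also: measured as one member of a kinome-wide profiling panel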
[53] = target: Melanin-concentrating hormone receptor 1 (Homo sapiens, UniProt Q99705); experiment: Late-stage fluorescence-based counterscreen for antagonists of the G-protein coupled receptor 7 (GPR7): cell-based dose response assay to identify antagonists of the melanin-concentrating hormone receptor 1 (MCHR1) Set 6.
[54] = target: Neuropeptides B/W receptor type 1 (Homo sapiens, UniProt P48145); experiment: human NPBW1 receptor blockade, IC50 – cell-based, fluorescence, dose response, set 6, late-stage follow-up (AID 588583)
[55] = target: Cyclin-dependent kinase 1 (Homo sapiens, UniProt P06493);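 also: Kinome-wide panel profiling, with the target listed as panel member CDC2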
[56] = target: Serine/threonine-protein kinase PLK1 (Homo sapiens, UniProt P53350);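 also: PLK1 measured as one member of a kinome-wide profiling panel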
[57] = target: MAP kinase-activated protein kinase 2 (Homo sapiens, UniProt P49137);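 also: measured as one member of a kinome-wide kinase panel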
MAP kinase-activated protein kinase 2, sequence (P49137 whole entry): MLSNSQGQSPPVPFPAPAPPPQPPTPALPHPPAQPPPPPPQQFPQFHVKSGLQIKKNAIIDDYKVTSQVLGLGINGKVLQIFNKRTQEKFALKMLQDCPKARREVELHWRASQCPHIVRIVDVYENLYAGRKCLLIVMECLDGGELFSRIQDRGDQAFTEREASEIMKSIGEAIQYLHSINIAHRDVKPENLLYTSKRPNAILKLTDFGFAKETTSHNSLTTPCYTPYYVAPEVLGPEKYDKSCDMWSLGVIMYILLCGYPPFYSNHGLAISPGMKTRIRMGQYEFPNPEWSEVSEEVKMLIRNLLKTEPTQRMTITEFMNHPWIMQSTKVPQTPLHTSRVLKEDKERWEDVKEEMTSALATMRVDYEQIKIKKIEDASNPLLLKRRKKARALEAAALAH

Ki [1]: 0.0316 µM (active)
Ki [2]: 0.501 µM (active)
Ki [3]: 2.51 µM (active)
Ki [4]: 1 µM (active)
Ki (LIM domain kinase 1): > 3.16 µM (inactive)
Ki [5]: 0.501 µM (active)
Ki [6]: 0.398 µM (active)
Ki [7]: > 3.98 µM (inactive)
Ki [8]: 0.631 µM (active)
Ki [9]: > 5.01 µM (inactive)
Ki [10]: > 3.16 µM (inactive)
Ki [11]: 2.51 µM (active)
Ki [12]: > 6.31 µM (inactive)
Ki [13]: 1 µM (active)
Ki [14]: > 6.31 µM (inactive)
Ki [15]: > 3.16 µM (inactive)
Ki [16]: > 2.51 µM (inactive)
Ki (Aurora kinase A): 0.398 µM (active)
Ki [17]: > 3.16 µM (inactive)
Ki [18]: > 2.51 µM (inactive)
Ki [19]: 0.316 µM (active)
Ki [20]: > 3.16 µM (inactive)
Ki [21]: > 3.98 µM (inactive)
Ki (Activated CDC42 kinase 1): > 3.98 µM (inactive)
Ki [22]: > 6.31 µM (inactive)
Ki [23]: > 3.98 µM (inactive)
Ki [24]: > 2.51 µM (inactive)
Ki [25]: > 3.98 µM (inactive)
Ki [26]: > 2.51 µM (inactive)
Ki [27]: > 3.98 µM (inactive)
Ki [28]: 2.51 µM (active)
Ki [29]: > 3.16 µM (inactive)
Ki (Aurora kinase B): 0.794 µM (active)
Ki [30]: > 3.98 µM (inactive)
Ki [31]: > 1.26 µM (inactive)
Ki [32]: 3.98 µM (active)
Ki [33]: > 6.31 µM (inactive)
Ki [34]: 0.794 µM (active)
Ki [35]: 0.501 µM (active)
Ki [36]: > 3.16 µM (inactive)
Ki [37]: > 2.51 µM (inactive)
Ki [38]: > 3.16 µM (inactive)
Ki [39]: > 2.51 µM (inactive)
Ki [40]: > 2.51 µM (inactive)
Ki [41]: 2.51 µM (active)
Ki [42]: > 2 µM (inactive)
Ki [43]: > 3.98 µM (inactive)
Ki [44]: 3.98 µM (active)
Ki [45]: > 3.98 µM (inactive)
Ki [46]: > 3.16 µM (inactive)
Ki [47]: 0.794 µM (active)
Ki (Activin receptor type-1): 0.2 µM (active)
Ki [48]: 2.51 µM (active)
Ki [49]: 3.16 µM (active)
Ki [50]: > 5.01 µM (inactive)
Ki [51]: 0.501 µM (active)
Structure (SMILES): COc1ccccc1-c1ccnc(Nc2cccc(S(C)(=O)=O)c2)n1
Ki [52]: > 5.01 µM (inactive)

IC50 [53]: 3.17 µM (active)
IC50 [54]: 3.17 µM (active)
Structure (SMILES): COc1ccc(Oc2c(Cl)cnn(CC(=O)N(c3ccccc3)C(C)C)c2=O)cc1

Ki [55]: 2.51 µM (active)
Ki [19]: 7.94 µM (active)
Ki [22]: 5.01 µM (active)
Ki (Aurora kinase B): 1.58 µM (active)
Ki [56]: 7.94 µM (active)
Ki [57]: 2.51 µM (active)
Structure (SMILES): Cc1cccc(CNC(=O)c2cnn3c(-c4ccccc4)ccnc23)c1C
